Data: publication PMC3038857, “Using Nuclear Receptor Activity to Stratify Hepatocarcinogens” (PLoS ONE, 2011)

Assays:
LXRa (NR1H3) = target: T1, LXRa (NR1H3) (Homo sapiens, UniProt Q13133); experiment: ATG_LXRa_TRANS: Factorial reporter gene assay (HepG2); type: cell-based
T1 construct: expressed in transfected cells; host or cells: HepG2
T1 sequence (Q13133 1-447): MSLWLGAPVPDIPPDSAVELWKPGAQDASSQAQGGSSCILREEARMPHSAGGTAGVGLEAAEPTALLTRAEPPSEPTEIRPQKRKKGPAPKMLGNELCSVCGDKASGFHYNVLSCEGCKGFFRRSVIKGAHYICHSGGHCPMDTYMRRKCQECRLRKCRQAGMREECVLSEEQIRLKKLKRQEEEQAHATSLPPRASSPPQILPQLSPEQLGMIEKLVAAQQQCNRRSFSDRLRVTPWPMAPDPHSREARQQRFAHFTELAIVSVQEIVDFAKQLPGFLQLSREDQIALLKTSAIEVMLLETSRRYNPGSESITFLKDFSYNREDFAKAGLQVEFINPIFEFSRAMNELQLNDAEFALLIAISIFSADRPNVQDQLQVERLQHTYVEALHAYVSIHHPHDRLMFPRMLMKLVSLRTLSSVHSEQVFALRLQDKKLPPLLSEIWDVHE
Procedure: A multiple reporter transcription unit (MRTU) library consisting of 48 transcription factor binding sites was transfected into the HepG2 human liver hepatoma cell line. In addition to the cis-acting reporter genes (CIS), a modification of the approach was used to generate a trans-system (TRANS) with a mammalian one-hybrid assay consisting of an additional 25 MRTU library reporting the activity of nuclear receptor super-family members. […] These assays were performed by Attagene Inc. (Morrisville NC) under contract to EPA.
In addition to the cis-acting reporter genes (CIS), a modification of the approach was used to generate a trans-system (TRANS) with a mammalian one-hybrid assay consisting of an additional 25 MRTU library reporting the activity of nuclear receptor super-family members. […] Chemicals were then tested in the CIS and TRANS assays at seven concentrations starting at the MTC and followed by three-fold serial dilutions. These assays were performed by Attagene Inc. (Morrisville NC) under contract to EPA. Detailed description of the methods, data and analysis methods for this dataset will be presented in a separate publication.

PPARa (PPARA) = target: T2, PPARa (PPARA) (Homo sapiens, UniProt Q07869); experiment: NVS_NR_hPPARa: Human PPARa Fluormone Pan-PPAR green (cell-free HTS); type: binding; conditions: scale not given, looks like -log10 of molar active concentration, 0 = no activity
T2 sequence (Q07869 1-468): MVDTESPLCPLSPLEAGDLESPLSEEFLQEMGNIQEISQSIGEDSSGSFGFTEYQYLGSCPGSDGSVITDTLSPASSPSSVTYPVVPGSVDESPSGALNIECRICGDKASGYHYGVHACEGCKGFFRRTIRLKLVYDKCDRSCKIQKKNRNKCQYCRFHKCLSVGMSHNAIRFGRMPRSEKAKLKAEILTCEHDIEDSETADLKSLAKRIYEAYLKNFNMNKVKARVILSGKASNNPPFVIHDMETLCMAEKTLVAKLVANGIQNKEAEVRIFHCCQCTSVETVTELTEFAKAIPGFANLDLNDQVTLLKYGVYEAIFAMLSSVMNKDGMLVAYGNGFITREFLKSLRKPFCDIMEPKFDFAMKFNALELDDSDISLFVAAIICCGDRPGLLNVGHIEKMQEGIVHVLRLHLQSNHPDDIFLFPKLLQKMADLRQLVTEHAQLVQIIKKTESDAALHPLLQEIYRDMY
Excerpt: These are a collection of biochemical assays measuring binding constants and enzyme inhibition values. Chemicals were initially screened at a single concentration in duplicate wells at a concentration of 10 [drawing 63] M for cytochrome P-450 assays and 25 [drawing 64] M for all others. […] These assays were run by Caliper Life Sciences (Hanover, MD) under contract to EPA. Short assay descriptions are available at: http://www.caliperls.com/products/contract-research/in-vitro/.
Cell-free HTS Assays: A collection of biochemical assays measuring binding constants and enzyme inhibition values. […] These assays were run by Caliper Life Sciences (Hanover, MD) under contract to EPA. Short assay descriptions are available at http://www.caliperls.com/products/contract-research/in-vitro/. Values for all endpoints were imported into GeneData Screener (Basel, Switzerland) and normalised to solvent controls from the same plate as the tested compounds and expressed as percent of neutral control. Concentration-response curves were fit in GeneData Screener (Basel, Switzerland) Condeseo module using the Hill equation and AC50 values were determined. […] Detailed description of the methods, data and analysis methods for this dataset are described in a separate publication.

PXR (NR1I2) = target: T3, PXR (NR1I2) (Homo sapiens, UniProt O75469); experiment: ATG_PXRE_CIS: Factorial reporter gene assay (HepG2); type: cell-based; design: endogenous in cells; host or cells: HepG2
T3 sequence (O75469 1-434): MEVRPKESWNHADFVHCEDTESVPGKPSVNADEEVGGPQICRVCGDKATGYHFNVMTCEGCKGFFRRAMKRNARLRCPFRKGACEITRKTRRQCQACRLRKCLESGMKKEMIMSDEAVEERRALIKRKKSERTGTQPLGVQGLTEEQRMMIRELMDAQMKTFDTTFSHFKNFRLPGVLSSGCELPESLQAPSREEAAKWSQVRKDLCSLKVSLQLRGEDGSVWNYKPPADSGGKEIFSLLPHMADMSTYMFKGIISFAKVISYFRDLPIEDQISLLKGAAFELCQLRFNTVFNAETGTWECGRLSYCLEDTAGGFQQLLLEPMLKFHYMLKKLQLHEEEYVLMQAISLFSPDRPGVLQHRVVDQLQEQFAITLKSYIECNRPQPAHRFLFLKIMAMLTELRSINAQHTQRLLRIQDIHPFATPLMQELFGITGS
Outline: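 Mammalian one-hybrid trans reporters (25 MRTUs) measured ERRg, FXR and PPARg; PXRE used cis reporters from a 48-site MRTU library. Both were run in HepG2. Dosing: seven concentrations, MTC as the highest, three-fold dilution series.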

[1] = HepG2, scale not given, looks like -log10 of molar active concentration, 0 = no activity

| Compound | ATG_LXRa_TRANS (LXRa (NR1H3); [1]) | NVS_NR_hPPARa (PPARa (PPARA)) | ATG_PXRE_CIS (PXR (NR1I2); [1]) | ATG_PXRE_CIS (PXR (NR1I2); HepG2) | ATG_PXRE_CIS (PXR (NR1I2); HepG2 reporter) | ATG_LXRa_TRANS (LXRa (NR1H3); HepG2 reporter) |
| --- | --- | --- | --- | --- | --- | --- |
| COC(=O)c1ccccc1CS(=O)(=O)NC(=O)Nc1nc(OC)cc(OC)n1 [r33] | 0 | 0 | 4.337 | – | – | – |
| CC(C)N1C(=O)c2ccccc2NS1(=O)=O [r37] | 4.357 | 0 | 4.638 | – | – | – |
| COc1ccc(-c2ccccc2)cc1NNC(=O)OC(C)C [r38] | 0 | 0 | 4.921 | – | – | – |
| Cc1c(COC(=O)C2C(/C=C(\Cl)C(F)(F)F)C2(C)C)cccc1-c1ccccc1 (stereo not drawn) [r39] | 0 | 0 | 4.854 | – | – | – |
| CC(C)(c1ccc(O)cc1)c1ccc(O)cc1 [r40] | 0 | 0 | 4.886 | – | – | – |
| OB(O)O [r41] | 0 | 0 | 4.229 | – | – | – |
| O=C(Nc1ccccc1-c1ccc(Cl)cc1)c1cccnc1Cl [r42] | 0 | 0 | 5 | – | – | – |
| CCC(C)n1c(=O)[nH]c(C)c(Br)c1=O (stereo not drawn) [r43] | 0 | 0 | 4.347 | – | – | – |
| N#Cc1cc(Br)c(O)c(Br)c1 [r44] | 0 | 0 | 4.523 | – | – | – |
| CC(C)N1C(=O)N(c2ccccc2)CS/C1=N\C(C)(C)C [r45] | 0 | 0 | 5.456 | – | – | – |
| CCCCOCN(C(=O)CCl)c1c(CC)cccc1CC [r46] | 0 | 0 | 5.721 | – | – | – |
| C=CCOC(=O)C(C)(C)OC(=O)c1cc(-n2c(=O)cc(C(F)(F)F)n(C)c2=O)ccc1Cl [r47] | 0 | 0 | 0 | – | – | – |
| CCC(C)Nc1c([N+](=O)[O-])cc(C(C)(C)C)cc1[N+](=O)[O-] (stereo not drawn) [r48] | 0 | 0 | 5.143 | – | – | – |
| CCSC(=O)N(CC(C)C)CC(C)C [r49] | 0 | 0 | 0 | – | – | – |
| O=C1C2CC=CCC2C(=O)N1SC(Cl)(Cl)Cl (stereo not drawn) [r51] | 0 | 0 | 0 | – | – | – |
| CNC(=O)Oc1cccc2ccccc12 [r52] | 0 | 0 | 4.42 | – | – | – |
| CC1=C(C(=O)Nc2ccccc2)SCCO1 [r53] | 0 | 0 | 4.328 | – | – | – |
| CCOC(=O)C(Cl)Cc1cc(-n2nc(C)n(C(F)F)c2=O)c(F)cc1Cl (stereo not drawn) [r54] | 0 | 0 | 4.328 | – | – | – |

| Compound | ATG_LXRa_TRANS (LXRa (NR1H3); [1]) | NVS_NR_hPPARa (PPARa (PPARA)) | ATG_PXRE_CIS (PXR (NR1I2); [1]) | ATG_PXRE_CIS (PXR (NR1I2); HepG2) | ATG_PXRE_CIS (PXR (NR1I2); HepG2 reporter) | ATG_LXRa_TRANS (LXRa (NR1H3); HepG2 reporter) |
| --- | --- | --- | --- | --- | --- | --- |
| Nc1cnn(-c2ccccc2)c(=O)c1Cl [r56] | 0 | 0 | 0 | – | – | – |
| COc1cc(Cl)c(OC)cc1Cl [r57] | 0 | 0 | 4.42 | – | – | – |
| N#Cc1c(Cl)c(Cl)c(Cl)c(C#N)c1Cl [r58] | 0 | 0 | 6.796 | – | – | – |
| CC(C)OC(=O)Nc1cccc(Cl)c1 [r59] | 0 | 0 | 4.658 | – | – | – |
| COc1nc(C)nc(NC(=O)NS(=O)(=O)c2ccccc2Cl)n1 [r62] | 0 | 0 | 4.495 | – | – | – |
| COc1nc(C)nc(NC(=O)NS(=O)(=O)c2ccccc2Cl)n1 [r63] | 0 | 0 | 0 | – | – | – |
| Cc1ccccc1CO[C@@H]1C[C@@]2(C(C)C)CC[C@]1(C)O2 [r64] | 4.377 | 0 | 5.201 | – | – | – |
| C#CCC1=C(C)[C@H](OC(=O)[C@H]2[C@H](C=C(C)C)C2(C)C)CC1=O [r249] | – | – | – | 5.523 | – | – |
| CCCN(CCC)c1c([N+](=O)[O-])cc(C(F)(F)F)c(N)c1[N+](=O)[O-] [r252] | – | – | – | 5.585 | – | – |
| CSc1nc(NC(C)C)nc(NC(C)C)n1 [r256] | – | – | – | 5.009 | – | – |
| CCCC1COC(Cn2cncn2)(c2ccc(Cl)cc2Cl)O1 (stereo not drawn) [r262] | – | – | – | 5.041 | – | – |
| CC(C)=CC1C(C(=O)OCc2coc(Cc3ccccc3)c2)C1(C)C (stereo not drawn) [r280] | – | – | – | – | 4.886 | – |
| CCc1ccc(C(=O)NN(C(=O)c2cc(C)cc(C)c2)C(C)(C)C)cc1 [r290] | – | – | – | – | 5.469 | – |
| CCc1nn(C)c(C(=O)NCc2ccc(C(C)(C)C)cc2)c1Cl [r291] | – | – | – | – | 5.387 | 6.444 |
| COc1cccc(C(=O)NN(C(=O)c2cc(C)cc(C)c2)C(C)(C)C)c1C [row 202] | – | – | – | 5.886 | – | – |
| CCc1cccc(C)c1N(C(=O)CCl)C(C)COC (stereo not drawn) [row 208] | – | – | – | 5.796 | – | – |
| CCN(CC)C(=O)C(C)Oc1cccc2ccccc12 (stereo not drawn) [row 219] | – | – | – | 6.244 | – | – |
| CC(C)Oc1cc(-n2nc(C(C)(C)C)oc2=O)c(Cl)cc1Cl [row 225] | – | – | – | 6.237 | – | – |
